# Measured values: patent publication US20250270213A1, “PI3Ka INHIBITORS” (Synnovation Therapeutics, Inc., priority 2022, published 2025)
# System: T47D (PIK3CA H1047R) cells
# Assay: pS473 AKT assay with 2.5% FBS, T47D cells
# Type: cell-based
# Details: Homo sapiens, pSer473 AKT, DMEM with 2.5% FBS, 2 h treatment, read-out: T47D_IC50
# How it was run: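 In-cell chemiluminescent ELISA of AKT Ser473 phosphorylation, using anti-pSer473 primary and HRP secondary antibodies on fixed cells. T47D (PIK3CA H1047R) cells had 2 h of compound treatment in DMEM containing 2.5% FBS; IC50 derived from dose-response.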
row,Structure (SMILES),IC50 [nM]
1,"Cc1cc(C(C)Nc2ccc(Cl)nc2-c2ncn(C)n2)c2c(c1)c(=O)n(C)c1c2cnn1C1CCN(C(=O)C2(C#N)CC2)CC1 (centres unmarked) [Example 194, 1-(4-(9-(1-((6-chloro-2-(1-methyl-1H-1,2,4-triazol-3-yl)pyridin-3-yl)amino)ethyl)-4,7-dimethyl-5-oxo-4,5-dihydro-3H-pyrazolo[3,4-c]isoquinolin-3-yl)piperidine-1-carbonyl)cyclopropane-1-carbonitrile]",< 1000
2,"Cc1cc(C(C)Nc2ccc(Cl)nc2-c2ncn(C)n2)c2c(c1)c(=O)n(C)c1c2cnn1C1CCN(C(=O)c2ccnn2C)CC1 (centres unmarked) [Example 195, 9-(1-((6-chloro-2-(1-methyl-1H-1,2,4-triazol-3-yl)pyridin-3-yl)amino)ethyl)-4,7-dimethyl-3-(1-(1-methyl-1H-pyrazole-5-carbonyl)piperidin-4-yl)-3,4-dihydro-5H-pyrazolo[3,4-c]isoquinolin-5-one]",< 1000
3,"Cc1cc(C(C)Nc2ccc(Cl)nc2-c2cnn(C)c2)c2c(c1)c(=O)n(C)c1c2cnn1C1CCN(C(=O)CN(C)C)CC1 (centres unmarked) [Example 196, 9-(1-((6-chloro-2-(1-methyl-1H-pyrazol-4-yl)pyridin-3-yl)amino)ethyl)-3-(1-(dimethylglycyl)piperidin-4-yl)-4,7-dimethyl-3,4-dihydro-5H-pyrazolo[3,4-c]isoquinolin-5-one]",< 1000
4,"Cc1cc(C(C)Nc2ccc(Cl)nc2-c2ncn(C)n2)c2c(c1)c(=O)n(C)c1c2cnn1C1CCN(C(=O)[C@@H]2CCCN2C)CC1 (stereo partly drawn) [Example 197, 9-(1-((6-chloro-2-(1-methyl-1H-1,2,4-triazol-3-yl)pyridin-3-yl)amino)ethyl)-4,7-dimethyl-3-(1-(methyl-L-prolyl)piperidin-4-yl)-3,4-dihydro-5H-pyrazolo[3,4-c]isoquinolin-5-one]",< 1000
5,"CC(Nc1ccc(Cl)nc1-c1cnn(C)c1)c1cc(C#N)cc2c(=O)n(C)c3c(cnn3C3CCN(C)CC3)c12 (centres unmarked) [Example 198, 9-(1-((6-Chloro-2-(1-methyl-1H-pyrazol-4-yl)pyridin-3-yl)amino)ethyl)-4-methyl-3-(1-methylpiperidin-4-yl)-5-oxo-4,5-dihydro-3H-pyrazolo[3,4-c]isoquinoline-7-carbonitrile]",< 1000
6,"CCn1c(=O)c2cc(C)cc(C(C)Nc3ccc(Cl)nc3-c3ncn(C)n3)c2c2cn(C3CCOCC3)nc21 (centres unmarked) [Example 199, 9-(1-((6-Chloro-2-(1-methyl-1H-1,2,4-triazol-3-yl)pyridin-3-yl)amino)ethyl)-4-ethyl-7-methyl-2-(tetrahydro-2H-pyran-4-yl)-2,4-dihydro-5H-pyrazolo[3,4-c]isoquinolin-5-one]",< 1000
7,"Cc1cc(C(C)Nc2ccc(Cl)nc2-c2noc(=O)[nH]2)c2c(c1)c(=O)n(C)c1nn(C3CCOCC3)cc21 (centres unmarked) [Example 200, 3-(6-chloro-3-((1-(4,7-dimethyl-5-oxo-2-(tetrahydro-2H-pyran-4-yl)-4,5-dihydro-2H-pyrazolo[3,4-c]isoquinolin-9-yl)ethyl)amino)pyridin-2-yl)-1,2,4-oxadiazol-5(4H)-one]",< 1000
8,"CCn1c(=O)c2cc(C)cc(C(C)Nc3ccc(Cl)nc3-c3ncn(C)n3)c2c2cn(C3CCN(C)CC3)nc21 (centres unmarked) [Example 201, 9-(1-((6-Chloro-2-(1-methyl-1H-1,2,4-triazol-3-yl)pyridin-3-yl)amino)ethyl)-4-ethyl-7-methyl-2-(1-methylpiperidin-4-yl)-2,4-dihydro-5H-pyrazolo[3,4-c]isoquinolin-5-one]",< 1000
9,"CCn1c(=O)c2cc(C)cc(C(C)Nc3ccc(Cl)nc3-c3ncn(C)n3)c2c2cn(C3CCN(C(C)=O)CC3)nc21 (centres unmarked) [Example 202, 2-(1-Acetylpiperidin-4-yl)-9-(1-((6-chloro-2-(1-methyl-1H-1,2,4-triazol-3-yl)pyridin-3-yl)amino)ethyl)-4-ethyl-7-methyl-2,4-dihydro-5H-pyrazolo[3,4-c]isoquinolin-5-one]",< 1000
10,"CCn1c(=O)c2cc(C)cc(C(C)Nc3ccc(Cl)nc3-c3ncn(C)n3)c2c2cn(C3CCN(CCO)CC3)nc21 (centres unmarked) [Example 203, 9-(1-((6-Chloro-2-(1-methyl-1H-1,2,4-triazol-3-yl)pyridin-3-yl)amino)ethyl)-4-ethyl-2-(1-(2-hydroxyethyl)piperidin-4-yl)-7-methyl-2,4-dihydro-5H-pyrazolo[3,4-c]isoquinolin-5-one]",< 1000
11,"CCn1c(=O)c2cc(C)cc(C(C)Nc3ccc(Cl)nc3-c3ncn(C)n3)c2c2cn(C3CCN(CCC#N)CC3)nc21 (centres unmarked) [Example 204, 3-(4-(9-(1-((6-Chloro-2-(1-methyl-1H-1,2,4-triazol-3-yl)pyridin-3-yl)amino)ethyl)-4-ethyl-7-methyl-5-oxo-4,5-dihydro-2H-pyrazolo[3,4-c]isoquinolin-2-yl)piperidin-1-yl)propanenitrile]",< 1000
12,"CCn1c(=O)c2cc(C)cc(C(C)Nc3ccc(Cl)nc3-c3ncn(C)n3)c2c2cn(C3CN(C)C3)nc21 (centres unmarked) [Example 205, 9-(1-((6-Chloro-2-(1-methyl-1H-1,2,4-triazol-3-yl)pyridin-3-yl)amino)ethyl)-4-ethyl-7-methyl-2-(1-methylazetidin-3-yl)-2,4-dihydro-5H-pyrazolo[3,4-c]isoquinolin-5-one]",< 1000
13,"Cc1cc(C(C)Nc2ccc(Cl)nc2-c2cnn(C)c2)c2c(c1)c(=O)n(C)c1nn(C3CCN(C)CC3)cc21 (centres unmarked) [Example 206, 9-(1-((6-Chloro-2-(1-methyl-1H-pyrazol-4-yl)pyridin-3-yl)amino)ethyl)-4,7-dimethyl-2-(1-methylpiperidin-4-yl)-2,4-dihydro-5H-pyrazolo[3,4-c]isoquinolin-5-one]",< 1000
14,"Cc1cc(C(C)Nc2ccc(Cl)nc2-c2cnn(C)c2)c2c(c1)c(=O)n(C)c1nn(C3CCN(C(C)C)CC3)cc21 (centres unmarked) [Example 207, 9-(1-((6-chloro-2-(1-methyl-1H-pyrazol-4-yl)pyridin-3-yl)amino)ethyl)-2-(1-isopropylpiperidin-4-yl)-4,7-dimethyl-2,4-dihydro-5H-pyrazolo[3,4-c]isoquinolin-5-one]",< 1000
15,"Cc1cc(C(C)Nc2ccc(Cl)nc2-c2ncn(C)n2)c2c(c1)c(=O)n(C)c1nn(C3CCN(C)CC3)cc21 (centres unmarked) [Example 208, 9-(1-((6-chloro-2-(1-methyl-1H-1,2,4-triazol-3-yl)pyridin-3-yl)amino)ethyl)-4,7-dimethyl-2-(1-methylpiperidin-4-yl)-2,4-dihydro-5H-pyrazolo[3,4-c]isoquinolin-5-one]",< 1000
16,"CC(=O)N1CCC(n2cc3c4c(C(C)Nc5ccc(Cl)nc5-c5cnn(C)c5)cc(C)cc4c(=O)n(C)c3n2)CC1 (centres unmarked) [Example 209, 2-(1-Acetylpiperidin-4-yl)-9-(1-((6-chloro-2-(1-methyl-1H-pyrazol-4-yl)pyridin-3-yl)amino)ethyl)-4,7-dimethyl-2,4-dihydro-5H-pyrazolo[3,4-c]isoquinolin-5-one]",< 1000
17,"CCOC(=O)N1CCC(n2cc3c4c(C(C)Nc5ccc(Cl)nc5-c5cnn(C)c5)cc(C)cc4c(=O)n(C)c3n2)CC1 (centres unmarked) [Example 210, ethyl 4-(9-(1-((6-chloro-2-(1-methyl-1H-pyrazol-4-yl)pyridin-3-yl)amino)ethyl)-4,7-dimethyl-5-oxo-4,5-dihydro-2H-pyrazolo[3,4-c]isoquinolin-2-yl)piperidine-1-carboxylate]",< 1000
18,"Cc1cc(C(C)Nc2ccc(Cl)nc2-c2cnn(C)c2)c2c(c1)c(=O)n(C)c1nn(C3CCN(C(=O)N(C)C)CC3)cc21 (centres unmarked) [Example 211, 4-(9-(1-((6-chloro-2-(1-methyl-1H-pyrazol-4-yl)pyridin-3-yl)amino)ethyl)-4,7-dimethyl-5-oxo-4,5-dihydro-2H-pyrazolo[3,4-c]isoquinolin-2-yl)-N,N-dimethylpiperidine-1-carboxamide]",< 1000
19,"Cc1cc(C(C)Nc2ccc(Cl)nc2-c2cnn(C)c2)c2c(c1)c(=O)n(C)c1nn(C3CCN(CC(F)F)CC3)cc21 (centres unmarked) [Example 212, 9-(1-((6-Chloro-2-(1-methyl-1H-pyrazol-4-yl)pyridin-3-yl)amino)ethyl)-2-(1-(2,2-difluoroethyl)piperidin-4-yl)-4,7-dimethyl-2,4-dihydro-5H-pyrazolo[3,4-c]isoquinolin-5-one]",< 1000
20,"[2H]C([2H])([2H])n1c(=O)c2cc(C)cc(C(C)Nc3ccc(Cl)nc3-c3noc(=O)[nH]3)c2c2cnn([C@H]3CCOC3)c21 (stereo partly drawn) [Example 213, 3-[6-Chloro-3-[1-[7-methyl-5-oxo-3-[(3S)-tetrahydrofuran-3-yl]-4-(trideuteriomethyl)pyrazolo[3,4-c]isoquinolin-9-yl]ethylamino]-2-pyridyl]-4H-1,2,4-oxadiazol-5-one]",< 1000
21,"[2H]C([2H])([2H])n1c(=O)c2cc(C)cc(C(C)Nc3ccc(Cl)nc3-c3cnn(C)c3)c2c2cnn([C@H]3CCOC3)c21 (stereo partly drawn) [Example 214, 9-(1-((6-chloro-2-(1-methyl-1H-pyrazol-4-yl)pyridin-3-yl)amino)ethyl)-7-methyl-4-(methyl-d3)-3-((S)-tetrahydrofuran-3-yl)-3,4-dihydro-5H-pyrazolo[3,4-c]isoquinolin-5-one]",< 1000
22,"CCn1c(=O)c2cc(C)cc(C(C)Nc3ccc(Cl)nc3-c3noc(=O)[nH]3)c2c2cnn([C@H]3CCOC3)c21 (stereo partly drawn) [Example 215, 3-(6-chloro-3-((1-(4-ethyl-7-methyl-5-oxo-3-((S)-tetrahydrofuran-3-yl)-4,5-dihydro-3H-pyrazolo[3,4-c]isoquinolin-9-yl)ethyl)amino)pyridin-2-yl)-1,2,4-oxadiazol-5(4H)-one]",< 1000
23,"CCn1c(=O)c2cc(C)cc(C(C)Nc3ccc(Cl)nc3-c3ncn(C)n3)c2c2cnn([C@H]3CCOC3)c21 (stereo partly drawn) [Example 216, 9-(1-((6-chloro-2-(1-methyl-1H-1,2,4-triazol-3-yl)pyridin-3-yl)amino)ethyl)-4-ethyl-7-methyl-3-((S)-tetrahydrofuran-3-yl)-3,4-dihydro-5H-pyrazolo[3,4-c]isoquinolin-5-one]",< 1000
